Results taken from US9580487B2, “Method of treating stomach or bowel-related disorders by administering glucagon-like-peptide-2 (GLP-2) analogues” (Zealand Pharma A/S, priority 2005, dated 2017).
No end group written: not given here.

Key:
[1] = tested on: male Sprague Dawley rats treated with indomethacin; experiment: Indomethacin-induced small intestinal ulcers (model of Crohn's disease), extent of ulceration; assay type: in vivo; conditions: for Effect on ulceration compared with prednisolone: highest dose 200 nmol/kg vs prednisolone 10 mg/kg; for Estimated extent of ulceration: indomethacin alone 333±21 mm^2
Method: FIG. 13 is a graph illustrating the effect of compound 1848 (SEQ ID NO:36) on small intestinal ulcers induced by indomethacin. Male Sprague Dawley rats were treated with vehicle (saline; group 1) or indomethacin (7 mg/kg s.c., once daily for two days; groups 2-7). Indomethacin was given alone (group 2) or in combination with prednisolone (10 mg/kg s.c.; group 3) or with 8, 40, or 200 nmol/kg compound 1848 (SEQ ID NO:36) s.c. […] (groups 4-6). Finally, one group of rats was treated with combination treatment of prednisolone (10 mg/kg s.c.) and compound 1848 (SEQ ID NO:36), 200 nmol/kg s.c. once daily (group 7). Treatment with compound 1848 (SEQ ID NO:36) was initiated 4 days prior to indomethacin and continued during the two days of indomethacin treatment. On day 3, rats were sacrificed and upon necropsy, the small intestine was gently flushed with 10% formalin and filled with formalin for a period of 5 minutes, after which the intestine was cut open along the antimesenteric margin and suspended on a polypropylene plate. Any remaining intestinal contents were carefully removed with a pair of tweezers. After fixation for another 24 hours at room temperature, the tissue was rinsed in Milli-Q water and surface-stained for 20 minutes with Alcian Green 3BX (Chroma) prepared as a 0.5% solution in 1% acetic acid (Bie & Berntsen). After removal of excess staining solution with Milli-Q water the tissue preparation was transferred to 70% alcohol and analyzed using a stereomicroscope at low magnification (×7). Starting at the pylorus, the small intestine was scanned and the shape (circular vs. linear) and size (circular ulcers: diameter, linear ulcers: length×width) of all ulcers was measured using a standard ruler (resolution: 0.5 mm). An ulcer was defined as an area, which lacked epithelial surface. In healing ulcers only the area that still lacked epithelial surface was regarded an ulcer even if the villus structure was still missing in a larger area. All analysis was performed in a blinded manner. […] Treatment with prednisolone caused a significant reduction in the extent of ulceration by app. 29%. […] Values are means±SEM. * P<0.05 vs. indomethacin (group 2). ^#P<0.05 vs. prednisolone (group 3).
Crohn's disease is a chronic disease that causes episodic inflammation of the small intestine. The effect of the GLP-2 analogue 1848 (SEQ ID NO:36) on small intestinal inflammation in an indomethacin-induced model of Crohn's disease was investigated. We have previously shown that administration of indomethacin (s.c, once daily for 2 days) induces small intestinal inflammation characterized by ulcerations and, increases in the pro-inflammatory cytokine, tumour necrosis factor alpha (TNF-α).
To determine the effect of ZP1848 (SEQ ID NO:36) on ulceration 1848 (SEQ ID NO:36) (8, 40 and 200 nmol/kg, s.c, twice daily (9:00 and 16:00)) was given for 4 days prior to the first dose of indomethacin and for an additional two days together with indomethacin. The corticosteroid, prednisolone (10 mg/kg, p.o) was used as a positive control since corticosteroids are commonly used in the treatment of active inflammation in Crohn's disease. In addition a group of animals were given both 1848 (SEQ ID NO:36) (200 nmol/kg) and prednisolone to determine the effects of a combination treatment. Twenty four hours after the last dose of 1848 (SEQ ID NO:36) had been given the animals were sacrificed the small intestine was gently flushed clean and fixed. To determine the extent of ulceration the intestine was cut open along the antimesenteric margin, suspended on a polypropylene plate and surface-stained with Alcian Green 3BX. Starting at the pylorus, the small intestine was scanned and the shape (circular vs. linear) and size (circular ulcers: diameter, linear ulcers: length×width) of all ulcers was measured using a standard ruler (resolution: 0.5 mm). An ulcer was defined as an area, which lacked epithelial surface. […]

TNF-α = experiment: Small intestinal tissue content of TNF-α (ELISA) in rats with indomethacin-induced inflammation; assay type: in vivo; conditions: for Tissue levels of TNF-α, proximal segment: indomethacin alone 97±14, control 34±7
Method: Male Sprague Dawley rats were treated with vehicle (saline; group 1) or indomethacin (7 mg/kg s.c., once daily for two days; groups 2-7). […] On day 3, rats were sacrificed and upon necropsy, the small intestine was divided into three segments of equal length corresponding to 1) duodenum and proximal jejunum, 2) mid and distal jejunum and 3) ileum. Samples were immediately snap-frozen in liquid N2 and stored at −80° C. until analysis. Homogenization and extraction of cellular protein from small intestinal segments was performed according to the following procedure: Tissue segments were weighed and added a volume of 1.5 ml per gram tissue ice-cold (4° C.) extraction buffer (10 mM Tris-HCl (Sigma) and 1 mM EDTA (J. T. Baker), (pH 7.6) with 0.05% sodium azide (Fluka), 1% Tween-80 (Fluka), 2 mM phenylmethylsulfonyl fluoride (PMSF, Fluka) and 1 μg/ml of each of the protease inhibitors aprotinin, leupeptin and pepstatin A (Roche Diagnostics)). The tissue was cut into small bits with a pair of scissors and homogenized three times for 20 seconds (IKA UltraTurrax T25 homogenizer, Janke & Kunkel) at 9500 rpm with intermittent cooling on ice for 30 seconds. The homogenate was centrifuged at 20.000×g for 30 minutes at 4° C., the supernatant was collected and stored at −20° C. until analysis for TNF-α small intestinal protein extractions were analyzed for TNF-α using a commercially available ELISA kit according to the manufacturer's instructions (Rat Tumor Necrosis Factor-α UltraSensitive ELISA kit, Biosource International Inc.). The assay has a detection limit of 0.7 pg/ml. Protein extractions were analyzed for total protein content using a commercially available assay (DC protein assay, Bio-Rad Laboratories Ltd.). Small intestinal tissue levels of TNF-α were expressed relative to total protein. […] Values are means±SEM. * P<0.05 vs. indomethacin (group 2).
At sacrifice, however the small intestine was separated into three segments of equal length (proximal, mid and distal). TNF-α concentrations were measured in each of the individual segments using a commercially available ELISA kit.

Substance | Effect on ulceration compared with prednisolone [1] | Estimated extent of ulceration ([1]; 8 nmol/kg s.c.) [mm^2] | Estimated extent of ulceration ([1]; 40 nmol/kg s.c.) [mm^2] | Ulceration: addition of prednisolone to high dose compound ([1]; 200 nmol/kg plus prednisolone 10 mg/kg) | Estimated extent of ulceration ([1]; 200 nmol/kg s.c.) [mm^2] | Prevention of indomethacin-induced ulceration (in words) ([1]; 8, 40, 200 nmol/kg) | Reduction of total ulceration ([1]; highest dose (200 nmol/kg) vs indomethacin alone) [%] | Tissue levels of TNF-α, proximal segment (TNF-α; 8 nmol/kg) [pg/mg protein] | Tissue levels of TNF-α, proximal segment (TNF-α; 40 nmol/kg) [pg/mg protein] | Tissue levels of TNF-α, proximal segment (TNF-α; 200 nmol/kg) [pg/mg protein] | Small intestinal tissue levels of TNF-α (in words) (TNF-α; 8, 40 or 200 nmol/kg, indomethacin-treated rats) | Tissue levels of TNF-α, mid segment (in words) (TNF-α; 40 or 200 nmol/kg, indomethacin alone 108±9 pg/mg protein) | TNF-α levels, distal segment (in words) (TNF-α; indomethacin alone 75±5 pg/mg protein) | TNF-α: efficacy compared with prednisolone (TNF-α; vs prednisolone 10 mg/kg)
[Gly2, Glu3, Ser8,11, Leu10, Ala16,24,28]hGLP-2(1-33)-(Lys)6-NH2 (HGEGSFSSELSTILDALAARDFIAWLIATKITDKKKKKK-NH2) [Compound 1846] | greater than the effect of prednisolone |  |  |  |  |  |  |  |  |  |  |  |  | 
[Gly2, Glu3, Thr5, Ser8, Leu10, Ala11,16,24,28]hGLP-2(1-33)-(Lys)6-NH2 (HGEGTFSSELATILDALAARDFIAWLIATKITDKKKKKK-NH2) [Compound 1848] | more effective than the positive control, prednisolone | 230±12 | 216±17 | did not produced any additional effect | 178±17 | prevented indomethacin-induced ulceration in a dose-dependent fashion | ~50 | 45±14 | 44±9 | 45±7 | significantly decreased small intestinal tissue levels of the proinflammatory cytokine TNF-α | significantly reduced tissue levels of TNF-α | inhibitory effect on TNF-α levels in the distal segment but the effect was less pronounced compared to the other segments | more efficacious than prednisolone in the proximal and mid segments
